Results as given in ChEMBL document CHEMBL5257105, “Identification and structure-activity relationships for a series of N, N-disubstituted 2-aminobenzothiazoles as potent inhibitors of S. aureus” (Bioorg Med Chem Lett, 2023).
Values after ≈ are worked out from the molar mass of the structure shown. Values joined by “and” are separate entries in the source; they are usually repeats but may differ in a detail not shown here. Equal entries are not always repeated. Active and inactive are the calls of the source. No cut-off for these calls is given here.

What was measured:
[1] = system: Staphylococcus aureus; assay: Antibacterial activity against Staphylococcus aureus; assay type: functional; settings: for MIC: read-out: MIC
[2] = system: A549; assay: (§1) Cytotoxicity against human A549 cells; assay type: toxicity, cell-based; settings: a549
[3] = as §1; assay type: toxicity, cell-based; settings: A549 cells
[4] = system: Pseudomonas aeruginosa; assay: Antibacterial activity against Pseudomonas aeruginosa PAO1 harbouring delta6 mutant; assay type: functional
[5] = system: Pseudomonas aeruginosa; assay: Antibacterial activity against Pseudomonas aeruginosa PAO1 harbouring delta6 mutant with pore; assay type: functional
[6] = system: Staphylococcus aureus; assay: Antibacterial activity against Staphylococcus aureus ATCC 25923; assay type: functional
[7] = system: Escherichia coli; assay: Antibacterial activity against Escherichia coli BW25113; assay type: functional
[8] = system: Acinetobacter baumannii; assay: Antibacterial activity against Acinetobacter baumannii ATCC 17978; assay type: functional
[9] = system: Pseudomonas aeruginosa; assay: Antibacterial activity against Pseudomonas aeruginosa PAO1; assay type: functional
[10] = system: Staphylococcus aureus; assay: Antibacterial activity against Staphylococcus aureus ATCC 215; assay type: functional
[11] = system: Staphylococcus aureus; assay: Antibacterial activity against Staphylococcus aureus ATCC 216; assay type: functional
[12] = system: Staphylococcus aureus; assay: Antibacterial activity against Staphylococcus aureus ATCC 217; assay type: functional
[13] = system: Staphylococcus aureus; assay: Antibacterial activity against Staphylococcus aureus ATCC 219; assay type: functional
[14] = system: Staphylococcus aureus; assay: Antibacterial activity against Staphylococcus aureus ATCC 223; assay type: functional
[15] = system: Staphylococcus aureus; assay: Antibacterial activity against Staphylococcus aureus ATCC 701; assay type: functional
[16] = system: Staphylococcus aureus; assay: Antibacterial activity against Staphylococcus aureus ATCC 711; assay type: functional
[17] = system: Staphylococcus aureus; assay: Antibacterial activity against Staphylococcus aureus ATCC 716; assay type: functional
[18] = system: Staphylococcus aureus; assay: Bacteriostatic activity against Staphylococcus aureus ATCC 25923 at MIC measured after 5 to 40 hrs by time kill assay; assay type: functional, organism-based; settings: time 5-40 hrs
[19] = system: Staphylococcus aureus; assay: Bacteriostatic activity against Staphylococcus aureus ATCC 25923 at 4 times MIC measured after 5 to 40 hrs by time kill assay; assay type: functional, organism-based; settings: time 5-40 hrs
[20] = system: Staphylococcus aureus; assay: Bactericidal activity against Staphylococcus aureus ATCC 25923 at 16 times MIC measured after 9.5 to 40 hrs by time kill assay; assay type: functional, organism-based; settings: time 9.5-40 hrs
[21] = system: Escherichia coli; assay: Antibacterial activity against Escherichia coli; assay type: functional
[22] = system: Escherichia coli; assay: Antibacterial activity against wild type Escherichia coli harbouring pore; assay type: functional
[23] = system: Escherichia coli; assay: Antibacterial activity against […] Escherichia coli harbouring TolC-deficient mutant; assay type: functional
[24] = system: Escherichia coli; assay: Antibacterial activity against […] Escherichia coli harbouring TolC-deficient mutant with pore; assay type: functional
[25] = system: Pseudomonas aeruginosa; assay: Antibacterial activity against Pseudomonas aeruginosa PAO1 harbouring pore; assay type: functional
[26] = Staphylococcus aureus, read-out: MIC80

In the case of `Cc1nc(Cl)cc2sc(N(CCCn3ccnc3)C(=O)c3ccco3)nc12`, the MIC ([1]; Staphylococcus aureus) was > 100 µM.
`Cc1cc(Cl)cc2sc(N(CCCn3ccnc3)C(=O)c3ccccc3)nc12` showed an MIC ([1]; Staphylococcus aureus) of 4.9 µM (≈ 2.01 µg/mL) and a CC50 [2] of 37.2 µM.
In the case of `Cc1cc(Cl)cc2sc(N(CCCn3ccnc3)CS(=O)(=O)c3ccco3)nc12`, the MIC80 [1, 26] was 3.9 µM (≈ 1.76 µg/mL) and the CC50 [3] was 43.2 µM.
In the case of `Cc1cc(Cl)cc2sc(N(CCCn3ccnc3)C(=O)C3CCCO3)nc12` (stereo unspecified), the MIC ([1]; Staphylococcus aureus) was 13.2 µM (≈ 5.34 µg/mL) and the CC50 [2] was 87.6 µM.
`Cc1cccc2sc(N(CCCn3ccnc3)C(=O)c3ccco3)nc12` gave an MIC ([1]; Staphylococcus aureus) of 7.4 µM (≈ 2.71 µg/mL) and a CC50 [3] of 84.7 µM.
For `Cc1cc(Cl)cc2sc(N(CCCn3ccnc3)CC3CC3)nc12`, the MIC80 [1, 26] was 5.9 µM (≈ 2.13 µg/mL) and the CC50 [3] was 65.6 µM.
In the case of `Cc1cc(Cl)cc2sc(N(CCCn3ccnc3)Cc3ccccc3)nc12`, the MIC80 [1, 26] was 5.9 µM (≈ 2.34 µg/mL), the CC50 [3] was 33.3 µM and the MIC [4] was > 200 µM. It also gave an MIC [5] of 3.2 µM (≈ 1.27 µg/mL).
For `Cc1cc(Cl)cc2sc(N(CCCn3cc[n+](C)c3)C(=O)c3ccco3)nc12`, the MIC80 [1] was 29.6 µM and 13.2 µM.
For `O=C(O)c1cn(C2CC2)c2cc(N3CCNCC3)c(F)cc2c1=O` [CIPROFLOXACIN], the MIC [6] was < 0.9 µM.
For `Cc1cc(Cl)cc2sc(N(CCCn3ccnc3)CS(=O)(=O)c3cccs3)nc12`, the MIC80 [1, 26] was 3.9 µM (≈ 1.82 µg/mL) and the CC50 [3] was 26.3 µM.
With `Cc1cc(Cl)cc2sc(NC(=O)c3ccco3)nc12` the MIC ([1]; Staphylococcus aureus) was > 100 µM and the CC50 [3] was 17.9 µM.
In the case of `NCc1ccc2nc(N(CCCn3ccnc3)C(=O)c3ccco3)sc2c1`, the MIC ([1]; Staphylococcus aureus) was > 100 µM.
With `Cc1cc(Cl)cc2sc(NCCCn3ccnc3)nc12` the MIC ([1]; Staphylococcus aureus) was 19.8 µM (≈ 6.08 µg/mL) and the CC50 [3] was 111 µM.
In the case of `Cc1cc(Cl)cc2sc(N(CCCn3ccnc3)C(=O)c3ccco3)nc12`, the CC50 [3] was 34.1 µM, the CC50 [2] was 12 µM and the MIC [7] was > 100 µM. For the same molecule, the MIC [8] was > 100 µM, the MIC [9] was > 100 µM and the MIC [10] was 14.8 µM (≈ 5.93 µg/mL). It also gave an MIC [11] of 4.4 µM (≈ 1.76 µg/mL), an MIC [12] of 6.6 µM (≈ 2.65 µg/mL) and an MIC [13] of 2.9 µM (≈ 1.16 µg/mL). It also gave an MIC [14] of 6.6 µM (≈ 2.65 µg/mL), an MIC [15] of 4.4 µM (≈ 1.76 µg/mL) and an MIC [16] of 6.6 µM (≈ 2.65 µg/mL). For the same molecule, the MIC [17] was 4.4 µM (≈ 1.76 µg/mL), the Activity [18] was “Active” and the Activity [19] was “Active”. For the same molecule, the Activity [20] was “Active”, the MIC [4] was > 200 µM and the MIC [5] was 6.25 µM (≈ 2.51 µg/mL).
With `Cc1cc(Cl)cc2sc(N(CCCn3ccnc3)CS(=O)(=O)c3ccccc3)nc12` the MIC80 [1, 26] was 2.6 µM (≈ 1.2 µg/mL) and the CC50 [3] was 23.3 µM.
With `Cc1cc(Cl)cc2sc(N(CCCn3ccnc3)C(=O)c3ccoc3)nc12` the MIC ([1]; Staphylococcus aureus) was 2.6 µM (≈ 1.04 µg/mL) and the CC50 [2] was 53.4 µM.
For `Cc1cc(Cl)cc2sc(N(CC3CCNCC3)C(=O)c3ccco3)nc12`, the MIC80 [1] was 19.8 µM (≈ 7.72 µg/mL), the MIC80 [1, 26] was 13.2 µM (≈ 5.15 µg/mL) and the MIC [9] was > 200 µM. It also gave an MIC [21] of 200 µM (≈ 78 µg/mL), an MIC [22] of 200 µM (≈ 78 µg/mL) and an MIC [23] of 50 µM (≈ 19.5 µg/mL). For the same molecule, the MIC [24] was 50 µM (≈ 19.5 µg/mL), the MIC [25] was > 200 µM and the MIC [4] was 25 µM (≈ 9.75 µg/mL). The MIC [5] was 25 µM (≈ 9.75 µg/mL).
For `Cc1ccoc1C(=O)N(CCCn1ccnc1)c1nc2c(C)cc(Cl)cc2s1`, the MIC ([1]; Staphylococcus aureus) was 2.6 µM (≈ 1.08 µg/mL), the CC50 [2] was 90.2 µM and the MIC [6] was 2.6 µM (≈ 1.08 µg/mL). It also gave an MIC [11] of 14.8 µM (≈ 6.14 µg/mL), an MIC [13] of 22.2 µM (≈ 9.21 µg/mL) and an MIC [14] of 9.9 µM (≈ 4.11 µg/mL). It also gave an MIC [15] of 14.8 µM (≈ 6.14 µg/mL), an MIC [16] of 14.8 µM (≈ 6.14 µg/mL) and an MIC [17] of 14.8 µM (≈ 6.14 µg/mL).
Work on `CC[C@H]1OC(=O)[C@H](C)[C@@H](O[C@H]2C[C@@](C)(OC)[C@@H](O)[C@H](C)O2)[C@H](C)[C@@H](O[C@@H]2O[C@H](C)C[C@H](N(C)C)[C@H]2O)[C@](C)(O)C[C@@H](C)C(=O)[C@H](C)[C@@H](O)[C@]1(C)O` [ERYTHROMYCIN] yielded an MIC [9] of 128 µM (≈ 93.9 µg/mL), an MIC [21] of 64 µM (≈ 47 µg/mL) and an MIC [22] of 4 µM (≈ 2.94 µg/mL). It also gave an MIC [23] of 2 µM (≈ 1.47 µg/mL), an MIC [4] of 8 µM (≈ 5.87 µg/mL) and an MIC [5] of 0.063 µM (≈ 0.0462 µg/mL).
